According to patent US20230009608A1, “GRK2 INHIBITORS AND USES THEREOF” (Cygnal Therapeutics, Inc., priority 2020, published 2023):

Molecular target: T1, GRK2 (Homo sapiens, UniProt P25098)
T1 construct: purchased SignalChem A14-10G
T1 sequence (P25098 1-689): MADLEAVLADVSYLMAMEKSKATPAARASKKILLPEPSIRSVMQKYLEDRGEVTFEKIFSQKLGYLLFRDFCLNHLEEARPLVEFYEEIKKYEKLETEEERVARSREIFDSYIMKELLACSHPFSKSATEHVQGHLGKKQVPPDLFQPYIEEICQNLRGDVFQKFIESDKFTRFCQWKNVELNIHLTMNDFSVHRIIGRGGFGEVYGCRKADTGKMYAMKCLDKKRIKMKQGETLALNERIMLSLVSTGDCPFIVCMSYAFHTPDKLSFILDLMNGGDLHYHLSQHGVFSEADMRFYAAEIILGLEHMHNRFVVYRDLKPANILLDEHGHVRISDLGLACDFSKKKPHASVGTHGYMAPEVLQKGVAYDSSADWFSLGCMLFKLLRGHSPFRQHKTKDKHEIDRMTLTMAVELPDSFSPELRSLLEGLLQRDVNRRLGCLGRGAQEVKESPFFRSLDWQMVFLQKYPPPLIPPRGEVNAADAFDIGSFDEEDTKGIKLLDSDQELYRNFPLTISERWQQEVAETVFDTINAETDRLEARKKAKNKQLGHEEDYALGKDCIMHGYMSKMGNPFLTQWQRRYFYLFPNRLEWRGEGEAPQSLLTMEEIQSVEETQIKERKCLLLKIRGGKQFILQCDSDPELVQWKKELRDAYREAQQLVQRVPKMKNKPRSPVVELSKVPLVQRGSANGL
Assay: ADPGlo GRK2 Inhibition Assay (Example 8)
Type: biochemical
Conditions: 7.5 nM GRK2, 10 μM ATP, ADP-Glo; read-out: GRK2 IC50 (nM) (Example 8)
Procedure: HTS was performed using 1 μM compound.
Compounds were dissolved in 100% DMSO, serially diluted tree-fold from 100 μM concentration to 46 nM and transferred (50 nL) into assay ready plate.
Materials: GRK2 was purchased from SignalChem (Cat #A14-10G, Lot #X^645-3). Substrate GRKtide was from SignalChem (Cat #G46-58, Lot #R339-6). ADP-Glo Kinase Assay from Promega (Cat #V9102). Assay buffer consisted of 25 mMv HEPES (pH7.5), 10 mMv MgCl2, 0.01% Tween-20, 1 mM DDT. 384-well white plates were from Greiner […] (Item #784075).
HTS protocol: Take 384 well plate with 50 nL of compound in columns 3-22/DMSO solution 1-2,23-24. Add 2.5 μL assay buffer to columns 23 and 24 using Thermo Scientific Multidrop Combi Dispenser. Add 2.5 μL of 2× enzyme solution (15 nM in 1× assay buffer) using Thermo Scientific Multidrop Combi Reagent Dispenser to all columns except of 23 and 24. Incubate for 15 minutes. Fill plate with 2.5 μL of 2× substrate mix (20 μM ATP and 0.6 mg/nt GRKtide in Ix assay buffer) using Thermo Scientific Multidrop Combi Reagent Dispenser. Spin 15 seconds at 1000 rpm and incubate for 180 min at room temperature. Add 5 μL ADP-Glo reagent to all the wells. Spin 15 seconds at 1000 rpm and incubate for 40 min at room temperature. Add 10 μL Detection solution to all the wells. Incubate for 30 min at room temperature. Read plate in Luminescent modeon BMG PheraStar FSX (gain=3600).
Data Analysis: Data were analyzed in GraphPad Prism 8.0.2. Each HTS plate contains compounds in columns 3-22, controls (enzyme, no compound) in columns 1 and 2, and blanks (no enzyme) in columns 23 and 24. HTS percent inhibition was calculated for each compound from the signal in luminescence units and the mean of the plate controls and the mean of the plate blanks using the following equation: % Inhibition=100*(1−((signal-blank mean)/(control mean-blank mean))). At the final stage of data processing, we obtain dose-response curves, tables and SDF-files with the results of screening for each substance.

Structure (SMILES) | IC50 [nM]
COc1cccc([C@@H](C)NC(=O)c2cccc(NCc3nnc(-c4ccncn4)n3C)c2)c1 [compound 27] | 12
Cc1cccc2ncc(CNC(=O)c3cccc(NCc4nnc(-c5ccncn5)n4C)c3)n12 [compound 37] | 0.79
COc1cccc(C(CO)NC(=O)c2cccc(NCc3nnc(-c4ccncn4)n3C)c2)c1 (stereo not drawn) [compound 49] | 5.4
Cn1c(CNc2cccc(C(=O)NCc3ccc(-n4nccn4)cc3)c2)nnc1-c1ccncn1 [compound 42] | 2.1
Cn1c(CNc2cccc(C(=O)NC3c4ccccc4CC3O)c2)nnc1-c1ccncn1 (stereo not drawn) [compound 56] | 7.3
COc1cccc(C(C)NC(=O)c2cccc(NCc3nnc(-c4ccncn4)n3C)c2)c1 (stereo not drawn) [compound 48] | 4.4
Cc1cccnc1CNC(=O)c1cccc(NCc2nnc(-c3ccncn3)n2C)c1 [compound 11] | 14
Cn1c(CNc2cccc(C(=O)NCc3ccc(C#N)cc3)c2)nnc1-c1ccncn1 [compound 54] | 6.3
CCS(=O)(=O)c1ccc(CNC(=O)c2cccc(NCc3nnc(-c4ccncn4)n3C)c2)cc1 [compound 53] | 6.2

Same assay, conditions: ADPGlo GRK2 enzyme assay; read-out: A: Enzymatic GRK2: IC50 (nM) (Example 8)

Structure (SMILES) | IC50 [nM]
CN1CCN(c2ccccc2CNC(=O)c2cccc(NCc3nnc(-c4ccncn4)n3C)c2)CC1 | 184
Cn1c(CNc2cccc(C(=O)NCc3nccnc3O)c2)nnc1-c1ccncn1 | 728
Cn1c(CNc2cccc(C(=O)NCC3(c4ccccn4)CC3)c2)nnc1-c1ccncn1 | 526
Cn1c(CNc2cccc(C(=O)NCc3cccnc3N3CCOCC3)c2)nnc1-c1ccncn1 | 176
CCc1n[nH]c(=O)c(CNC(=O)c2cccc(NCc3nnc(-c4ccncn4)n3C)c2)c1CC | 504
CCn1ccnc1C(C)NC(=O)c1cccc(NCc2nnc(-c3ccncn3)n2C)c1 (stereo not drawn) | 189
CN1CC[C@H](NC(=O)c2cccc(NCc3nnc(-c4ccncn4)n3C)c2)c2ccccc21 | 85
Cn1c(CNc2cccc(C(=O)NCc3ncccc3S(C)(=O)=O)c2)nnc1-c1ccncn1 | 172
CCCCCOc1ccc2c(c1)[C@H](NC(=O)c1cccc(NCc3nnc(-c4ccncn4)n3C)c1)CCO2 | 732
CN1CCc2ccccc2C(NC(=O)c2cccc(NCc3nnc(-c4ccncn4)n3C)c2)C1=O (stereo not drawn) | 253
COc1ccc(CNC(=O)c2cccc(NCc3nnc(-c4ccncn4)n3C)c2)cc1 | 913
Cn1c(CNc2cccc(C(=O)N[C@]3(c4ccccc4F)C[C@H](O)C3)c2)nnc1-c1ccncn1 | 423
CCCCCOc1ccc2c(c1)[C@H](NC(=O)c1cccc(NCc3nnc(-c4ccncn4)n3C)c1)CO2 | 550
Cc1nc2c(c(C)c1CNC(=O)c1cccc(NCc3nnc(-c4ccncn4)n3C)c1)c(=O)[nH]n2C | 181
Cn1c(CNc2cccc(C(=O)NCc3cccnc3-n3cccn3)c2)nnc1-c1ccncn1 | 146
C[C@H](NC(=O)c1cccc(NCc2nnc(-c3ccncn3)n2C)c1)c1ccc(Cl)cn1 | 950
COC1COc2ccccc2C1NC(=O)c1cccc(NCc2nnc(-c3ccncn3)n2C)c1 (stereo not drawn) | 59.1
Cn1c(CNc2cccc(C(=O)NCc3cccnc3-n3cncn3)c2)nnc1-c1ccncn1 | 119
Cn1c(CNc2cccc(C(=O)NC(CO)c3c(F)cccc3F)c2)nnc1-c1ccncn1 (stereo not drawn) | 146
Cn1c(CNc2cccc(C(=O)NCc3cc4n(n3)CCC4)c2)nnc1-c1ccncn1 | > 1000
COc1ccc([C@H](C)NC(=O)c2cccc(NCc3nnc(-c4ccncn4)n3C)c2)cc1 | 593

Same assay, conditions: Enzyme Assay A, ADPGlo (Example 8); read-out: A: Enzymatic GRK2: IC50 (nM) (Example 8)

Structure (SMILES) | IC50 [nM]
Cn1c(CNc2cccc(C(=O)N[C@@H]3COCc4ccccc43)c2)nnc1-c1ccncc1 | 201
Cn1c(CNc2cccc(C(=O)NCc3nc4ccccc4[nH]3)c2)nnc1-c1ccncn1 | 100
Cn1c(CNc2cccc(C(=O)NC(c3ccccc3)C(C)(C)CO)c2)nnc1-c1ccncn1 (stereo not drawn) | 880
CC(NC(=O)c1cccc(NCc2nnc(-c3ccncn3)n2C)c1)c1nnc2ccccn12 (stereo not drawn) | 260
COc1ccc(F)cc1CNC(=O)c1cccc(NCc2nnc(-c3ccncn3)n2C)c1 | 15
CN(C)C[C@@H](NC(=O)c1cccc(NCc2nnc(-c3ccncn3)n2C)c1)c1ccccc1 | 210
